Blank lines part the entries; values can stand above or below the molecule they belong to.
Legend:
[1] = system: OsGA20ox1; experiment: RNA gel blot of GA20-oxidase gene transcription in treated rice seedlings; format: in vivo, Oryza sativa; details: wild-type rice seedlings, 10 μM, three days, relative to the effect on OsGA2ox3
Method: (§1) Seeds of wild-type rice (Oryza sativa L., i.e. Nipponbare) were sterilized in 1% NaClO for one hour, and seeded on agar medium. Seedlings were grown in a growth chamber under continuous light at 30° C. To investigate the influence of GA3 and uniconazole on GA-oxidase expression, wild-type rice seedlings were transferred to a hydroponic culture system containing 10 μM GA3 or 10 μM uniconazole, and allowed to grow for three days. Ten-micrograms of RNAs were prepared from each sample, and gel blot analysis was performed as previously described (Sakamoto, T. et al., Plant Physiol., 125(3): 1508–16, 2001). The influence of uniconazole, a suppressor of GA3 and GA biosyntheses, on the transcriptional level of OsGA2ox2 and OsGA2ox3 (FIG. 6A) was examined. Transcription level of OsGA2ox3 was increased by GA3 treatment, but decreased by uniconazole (FIG. 6A) treatment. […] Transcription of the […] gene was not detected even after GA3 treatment.

[2] = system: AtGA2ox1; details: GA-deficient mutants, after treatment with GA3; cited from earlier work
[3] = system: AtGA2ox2; details: GA-deficient mutants, after treatment with GA3; cited from earlier work
[4] = system: OsGA2ox3; experiment: RNA gel blot of OsGA2ox3 transcription in treated rice seedlings; format: in vivo, Oryza sativa; details: for transcription level of the OsGA2ox3 gene: FIG. 6B; for Transcription level of OsGA2ox3: wild-type rice seedlings, 10 μM, three days, FIG. 6A
Method: as §1

[5] = system: OsGA2ox1; details: GA3-treatment; cited from earlier work
[6] = target: T1, OsGA2ox3 (Oryza sativa subsp. japonica, UniProt Q8S0S6); experiment: Enzyme assay with recombinant OsGA2ox3 (E. coli lysate), products identified by GC-MS; format: biochemical; details: labeled substrate incubated with recombinant OsGA2ox3, full scan GC-MS
T1 construct: general method only; made in house; host or cells: E. coli
T1 sequence (Q8S0S6 whole entry): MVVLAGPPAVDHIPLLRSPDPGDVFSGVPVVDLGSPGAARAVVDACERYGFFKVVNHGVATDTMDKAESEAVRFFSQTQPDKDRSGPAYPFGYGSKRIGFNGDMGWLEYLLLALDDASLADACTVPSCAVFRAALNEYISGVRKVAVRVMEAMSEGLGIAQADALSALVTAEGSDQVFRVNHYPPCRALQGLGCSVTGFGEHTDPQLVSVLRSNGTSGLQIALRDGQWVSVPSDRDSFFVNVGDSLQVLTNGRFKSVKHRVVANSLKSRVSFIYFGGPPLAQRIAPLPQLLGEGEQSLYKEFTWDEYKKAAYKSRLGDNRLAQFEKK
From the text: A cell lysate obtained from E. coli heterologously expressing OsGA2ox3 cDNA was used for enzyme assay as previously described (Sakamoto, T. et al., Plant Physiol., 125(3): 1508–16, (2001)). […] However, GA20 was metabolized to a GA29-catabolite. Furthermore, the metabolism of GA29 to a GA29-catabolite was confirmed by metabolism experiments.

[7] = system: OsGA2ox1; details: cited from earlier work
[8] = system: wild type rice; experiment: Overexpression of OsGA2ox3 cDNA in transgenic rice; format: in vivo, Oryza sativa
Method: As previously described (Sakamoto, T. et al., Plant Physiol., 125(3): 1508–16, 2001), the full-length OsGA2ox3 cDNA was inserted between the rice actin promoter and the polyadenylation signal of nopaline synthase (NOS) present in a hygromycin resistant binary vector pAct-Hm2. This construct was introduced into Agrobacterium tumefaciens EHA101. Agrobacterium-mediated transformation was conducted as described in the literature (WO 01/06844 A1). Transgenic plants were selected on a medium containing 50 mg/L hygromycin.
To test the activity of the OsGA2ox3 gene product in vivo, the full-length OsGA2ox3 cDNA was fused to the rice actin promoter and introduced into wild type rice by Agrobacterium-mediated gene transfer. […] Leaf blades of these plants were dark green, and they were shorter and wider than those of the wild type plants. All of these phenotypes are typical for GA-deficient dwarf rice plants.

Molecule: C=C1C[C@]23C[C@@]1(O)CC[C@H]2[C@@]12C=C[C@H](O)[C@@](C)(C(=O)O1)[C@H]2[C@@H]3C(=O)O [GA3]
- transcriptional level of the OsGA20ox1 gene [1]: completely reversed
- transcription levels of AtGA2ox1 [2]: increased
- transcription levels of AtGA2ox2 [3]: increased
- Transcription of the OsGA2ox3 gene ([4]; after GA3 treatment, detection): not detected
- transcription level of the OsGA2ox3 gene ([4]; one hour after GA3 treatment): increased
- transcription level of the OsGA2ox3 gene ([4]; six hours after GA3 treatment): decreased to a level that was even lower than the transcription level observed before GA3 treatment
- Transcription level of OsGA2ox3 [4]: increased
- transcription level of OsGA2ox1 [5]: not affected

- Product [6]: GA29-catabolite
- Product ([6]; listed as [^2H2]GA29): [^2H2]GA29-catabolite
Molecule: C=C1C[C@]23C[C@@]1(O)CC[C@H]2[C@@]12C[C@H](O)C[C@@](C)(C(=O)O1)[C@H]2[C@@H]3C(=O)O [GA29, gibberellin A29]

Molecule: CC(C)(C)C(O)/C(=C\c1ccc(Cl)cc1)n1cncn1 (centres unmarked) [uniconazole]
- transcriptional level of the OsGA20ox1 gene [1]: completely reversed
- Transcription level of OsGA2ox3 [4]: decreased

- Product [6]: GA8
- Product ([6]; listed as [^2H2]GA1): [^2H2]GA8
Molecule: C=C1C[C@]23C[C@@]1(O)CC[C@H]2[C@@]12CC[C@H](O)[C@@](C)(C(=O)O1)[C@H]2[C@@H]3C(=O)O [GA1]
- product of metabolism by OsGA2ox1 gene product [7]: GA8

- Product [6]: GA29-catabolite
- Product ([6]; listed as [^2H2]GA20): [^2H2]GA29-catabolite
Molecule: C=C1C[C@]23C[C@@]1(O)CC[C@H]2[C@@]12CCC[C@@](C)(C(=O)O1)[C@H]2[C@@H]3C(=O)O [GA20, gibberellin A20]
- product of metabolism by OsGA2ox1 gene product [7]: GA29

B1: OsGA2ox3 cDNA: full-length rice GA2-oxidase cDNA (SEQ ID NO: 3) fused to the rice actin promoter, introduced into rice (nucleic acid, listed as Oryza sativa)
DNA: ATGGTGGTTCTCGCTGGCCCGCCCGCCGTCGATCACATCCCGCTGCTGAGGTCGCCGGACCCCGGCGACGTCTTCTCCGGCGTGCCGGTCGTCGACCTCGGCAGCCCCGGCGCGGCGAGGGCCGTGGTGGACGCCTGCGAGCGGTACGGGTTCTTCAAGGTCGTCAACCACGGCGTGGCCACGGACACGATGGACAAGGCCGAGTCGGAGGCCGTCAGGTTCTTCTCCCAGACGCAGCCCGACAAGGACCGCTCCGGCCCGGCCTACCCGTTCGGGTACGGCAGCAAGCGGATCGGGTTCAATGGCGACATGGGGTGGCTCGAGTACCTCCTCCTCGCCCTCGACGACGCGTCGCTCGCCGACGCCTGCACCGTCCCGTCCTGCGCGGTCTTCCGGGCCGCTCTGAACGAGTACATCTCGGGGGTGCGGAAGGTGGCGGTGCGGGTGATGGAGGCGATGTCGGAGGGGCTGGGCATTGCGCAGGCGGACGCGCTGAGCGCGCTGGTGACGGCGGAAGGGAGCGACCAGGTGTTCCGCGTGAACCACTACCCGCCGTGCCGCGCGCTGCAGGGGCTCGGCTGCAGCGTCACCGGCTTCGGCGAGCACACCGACCCGCAGCTCGTCTCCGTGCTCCGCTCAAACGGCACGTCCGGCCTGCAGATCGCGCTCCGCGACGGCCAGTGGGTGTCCGTGCCCTCCGACCGCGACTCCTTCTTCGTCAACGTCGGCGACTCGTTGCAGGTTCTGACCAATGGGAGGTTCAAGAGCGTGAAGCACAGGGTGGTGGCCAACAGCCTAAAGTCTAGGGTTTCCTTCATCTACTTTGGAGGGCCACCGTTAGCACAGAGGATTGCACCATTGCCACAGCTGCTGGGGGAGGGAGAGCAGAGCCTGTACAAGGAGTTCACATGGGATGAGTACAAGAAGGCTGCCTACAAATCAAGGCTTGGAGACAACAGGCTGGCCCAGTTTGAGAAGAAGTAG
modifications: rice actin promoter fused, not cited; CDS (1)..(984)
- phenotype of transgenic plants ([8]; rice actin promoter, 27 independent lines, FIG. 5): extreme dwarf phenotypes
- flowering of transgenic plants ([8]; wild type flowered about three months after seeding): did not flower even after four months

Source: patent publication US7154028B2, “Gibberellin 2-oxidase gene, functions and uses thereof” (National Agriculture and Bio-Oriented Research Organization, priority 2002, dated 2006)
